Laboratory results: patent US5789431A, “Naphthoquinone antitumor compound and method” (The University of North Carolina at Chapel Hill, priority 1996, dated 1998)
Where two headings read alike, the source gives them in different places.

Assays:
MALME-3M = experiment: in vitro melanoma cell growth inhibition (NCI screen)
M14 = experiment: as above
SK-MEL-2 = experiment: as above
SK-MEL-28 = experiment: as above
UACC-257 = experiment: as above
UACC-62 = experiment: as above
SF-539 = experiment: in vitro CNS cancer cell growth inhibition (NCI screen)
HCC-2998 = experiment: in vitro colon cancer cell growth inhibition (NCI screen)
HCT-116 = experiment: as above
IGROV1 = experiment: in vitro ovarian cancer cell growth inhibition (NCI screen)
OVCAR-3 = experiment: as above
OVCAR-4 = experiment: as above; conditions: OVACR-4
MCF-7 = experiment: in vitro breast cancer cell growth inhibition (NCI screen)
MDA-MB-435 = experiment: as above
MDA-N = experiment: as above
BT-549 = experiment: as above
OVCAR-5 = experiment: in vitro ovarian cancer cell growth inhibition (NCI screen)
DU-145 = experiment: in vitro prostate cancer cell growth inhibition (NCI screen)
NCI-H23 = experiment: in vitro non-small cell lung cancer cell growth inhibition (NCI screen)
NCI-H460 = experiment: as above
CCRF-CEM = conditions: human, ccrf-cem cells
K-562 = conditions: human, k-562 cells
MOLT-4 = conditions: human, molt-4 cells
SK-MEL-5 = experiment: in vitro melanoma cell growth inhibition (NCI screen)
SNB-75 = experiment: in vitro CNS cancer cell growth inhibition (NCI screen)
COLO-205 = experiment: in vitro colon cancer cell growth inhibition (NCI screen)
HT 29 = experiment: as above
SW 620 = experiment: as above
T-47D = experiment: in vitro breast cancer cell growth inhibition (NCI screen)
OVCAR-8 = experiment: in vitro ovarian cancer cell growth inhibition (NCI screen)
PC-3 = experiment: in vitro prostate cancer cell growth inhibition (NCI screen)
NCI-H522 = experiment: in vitro non-small cell lung cancer cell growth inhibition (NCI screen)
human tumor cell lines = format: cell-based; conditions: for GI50: Homo sapiens
SF-295 = experiment: in vitro CNS cancer cell growth inhibition (NCI screen)
786-0 = experiment: in vitro renal cancer cell growth inhibition (NCI screen)
RXF-393 = experiment: as above
HS 578T = experiment: in vitro breast cancer cell growth inhibition (NCI screen)
SK-OV-3 = experiment: in vitro ovarian cancer cell growth inhibition (NCI screen)
KB cells = experiment: in vitro cytotoxicity screening against KB cells in culture; format: cell-based; conditions: Homo sapiens, calculated from 2 data points across 50% inhibition in cell growth, read-out: ED50 (the source's name)
Experimental: Compound 5 was assayed for in vitro cytotoxicity against KB cells in culture, following the protocol of Monks. The KB cell line was obtained from the American Type Culture Collection, Rockville, MD, and cells were adapted to grow in antibiotic-free RPMI-1640 medium supplemented with […] calf serum.
The ED50 value was calculated mathematically from 2 data points across 50% inhibition in cell growth.

SF-268 = experiment: in vitro CNS cancer cell growth inhibition (NCI screen)
U 251 = experiment: as above
KM 12 = experiment: in vitro colon cancer cell growth inhibition (NCI screen)
HOP-92 = experiment: in vitro non-small cell lung cancer cell growth inhibition (NCI screen)
[1] = cancer cell panel, general / most cell lines, read-out: logGI50 values in the cancer cell line panel (converted)

Compound | cytotoxicity log GI50 (MALME-3M) | cytotoxicity log GI50 (M14) | cytotoxicity log GI50 (UACC-257) | cytotoxicity log GI50 (UACC-62) | cytotoxicity log GI50 (HCT-116) | cytotoxicity log GI50 (OVCAR-3) | cytotoxicity log GI50 (OVCAR-4) | cytotoxicity log GI50 (MCF-7) | cytotoxicity log GI50 (MDA-MB-435) | cytotoxicity log GI50 (MDA-N) | cytotoxicity log GI50 (OVCAR-5) | cytotoxicity log GI50 (NCI-H23) | cytotoxicity log GI50 (SNB-75) | cytotoxicity log GI50 (COLO-205) | cytotoxicity log GI50 (SW 620) | cytotoxicity log GI50 (OVCAR-8) | cytotoxicity log GI50 (NCI-H522) | GI50 (human tumor cell lines; [1]) | other results
COC(=O)CCCC(=O)NC1=C(Nc2ccc(OC)cc2)C(=O)c2ccccc2C1=O [Compound 53] | -5.47 M | -4.71 M | -4.74 M | -4.89 M | -4.71 M | -5.20 M | -4.75 M | -4.77 M | -4.74 M | -4.68 M | -4.73 M | -4.69 M | – | – | – | – | – | – | cytotoxicity log GI50 (SK-MEL-2): -4.75 M; cytotoxicity log GI50 (SK-MEL-28): -4.68 M; cytotoxicity log GI50 (SF-539): -4.71 M; cytotoxicity log GI50 (HCC-2998): -4.69 M; cytotoxicity log GI50 (IGROV1): -4.74 M; cytotoxicity log GI50 (BT-549): -4.71 M; cytotoxicity log GI50 (DU-145): -4.79 M; cytotoxicity log GI50 (NCI-H460): -4.80 M
CC(=O)NC1=C(NCCCl)C(=O)c2ccccc2C1=O [Compound 43] | -4.86 M | -4.89 M | -4.82 M | -4.70 M | -4.69 M | – | – | – | -4.78 M | -4.67 M | – | -4.58 M | -4.61 M | -4.55 M | -4.60 M | -4.70 M | -4.69 M | – | cytotoxicity log GI50 (CCRF-CEM): -4.72 M; cytotoxicity log GI50 (K-562): -4.55 M; cytotoxicity log GI50 (MOLT-4): -4.60 M; cytotoxicity log GI50 (SK-MEL-5): -4.77 M; cytotoxicity log GI50 (HT 29): -4.58 M; cytotoxicity log GI50 (T-47D): -4.60 M; cytotoxicity log GI50 (PC-3): -4.65 M
CCn1c(-c2cc(OC)cc(OC)c2)nc2c1C(=O)c1ccccc1C2=O [Compound 28] | – | – | – | -4.69 M | – | – | – | – | – | – | – | – | -4.65 M | – | – | – | -5.19 M | ~10000 nM | cytotoxicity log GI50 (SF-295): -4.53 M; cytotoxicity log GI50 (786-0): -4.34 M; cytotoxicity log GI50 (RXF-393): -4.86 M; cytotoxicity log GI50 (HS 578T): -4.44 M; cytotoxicity log GI50 (SK-OV-3): -5.41 M
CCn1c(C)nc2c1C(=O)c1ccccc1C2=O [Compound 5, 1-ethyl-2-methylnaphth-[2,3-d]imidazole-4,9-dione] | – | – | – | – | -5.91 M | -7.30 M | -6.49 M | -6.17 M | – | – | -6.11 M | -5.81 M | – | -6.45 M | -6.17 M | -6.31 M | -6.62 M | 100 to 1000 nM | IC50 (KB cells): < 0.4 µg/mL; GI50 (human tumor cell lines; OVCAR-3, -4, -5, and -8 ovarian cancer cell lines, read-out: logGI50 values (range over cell lines) (converted)): 50.1 to 794 nM; cytotoxicity against tumor cells (in words) (human tumor cell lines; cancer cell line panel): most active naphth[2,3-d]imidazole-4,9-dione derivative; cytotoxicity log GI50 (SF-268): -6.48 M; cytotoxicity log GI50 (U 251): -5.72 M; cytotoxicity log GI50 (KM 12): -5.76 M; cytotoxicity log GI50 (HOP-92): -5.79 M
